Experiments:
[1] = tested on: winter wheat; assay: Post-emergence test, herbicidal activity on winter wheat; assay type: in vivo; details: 21 days after application, average of 3 tests
From the text: (§1) The test plants (Avena and winter wheat) are raised under greenhouse conditions in seed trays to a post-application stage (1.5- to 2-leaf stage). Pinoxaden is then applied to the test plants either alone or in admixture with component b) and optionally c). For both applications an additive is used which contains per litre 45% by weight Agnique ME 18 RD-F and 25% by weight Emulsogen M in Solvesso 200 ND. Application of pinoxaden is effected in the form of an emulsifiable concentrate (EC 100), and component b) and optionally c) is used in the form of WP 25. Those formulations are used to prepare spray mixtures, each of 200 litres, which contain 50 g or 100 g of pinoxaden and component b) and optionally c) and in each case 0.5% of additive (based on the volume of the spray mixtures). The tests are evaluated 21 days after application (herbicidal activity 100%=plant completely dead; herbicidal activity 0%=no phytotoxic action on the plant). The results, which are values averaged from 3 tests, are compiled in the following Table.

[2] = tested on: Avena; assay: Post-emergence test, herbicidal activity on Avena; assay type: in vivo; details: 21 days after application, average of 3 tests
From the text: as §1

[3] = 100 g/ha pinoxaden + 0.5% additive

CCc1cc(C)cc(CC)c1-c1c(OC(=O)C(C)(C)C)n2n(c1=O)CCOCC2 [pinoxaden]
Herbicidal activity on Winter wheat ([1]; 50 g/ha pinoxaden + 0.5% additive, 0%=no phytotoxic action): 8% | Herbicidal activity on Winter wheat [1, 3]: 8% | Herbicidal activity on Avena ([2]; 50 g/ha pinoxaden + 0.5% additive, 100%=plant completely dead): 82% | Herbicidal activity on Avena [2, 3]: 87%

Reference: patent US20100120618A1, “HERBICIDAL COMPOSITION” (SYNGENTA CROP PROTECTION, INC., priority 2007, published 2010)
